Assay results taken from publication PMC8878464, “Fenchone Derivatives as a Novel Class of CB2 Selective Ligands: Design, Synthesis, X-ray Structure and Therapeutic Potential” (Molecules, 2022).
pEC50, pKi: −log10 of the molar value. Where “and” joins values, the source holds several entries; their conditions need not be identical. Identical values can stand only once. Entries after “also recorded” stand apart in the source; their conditions may differ. Like-named read-outs stand apart in the source and are kept apart here.

What was measured:
[1] = target: T1, human CB1R (hCB1R) (Homo sapiens, UniProt P21554); assay: [3H]CP-55,940 competition displacement binding assay, hCB1R membranes; conditions: for Ki: read-out: Ki (nM) hCB1R
T1 construct: purchased Charles River A317
T1 sequence (P21554 whole entry): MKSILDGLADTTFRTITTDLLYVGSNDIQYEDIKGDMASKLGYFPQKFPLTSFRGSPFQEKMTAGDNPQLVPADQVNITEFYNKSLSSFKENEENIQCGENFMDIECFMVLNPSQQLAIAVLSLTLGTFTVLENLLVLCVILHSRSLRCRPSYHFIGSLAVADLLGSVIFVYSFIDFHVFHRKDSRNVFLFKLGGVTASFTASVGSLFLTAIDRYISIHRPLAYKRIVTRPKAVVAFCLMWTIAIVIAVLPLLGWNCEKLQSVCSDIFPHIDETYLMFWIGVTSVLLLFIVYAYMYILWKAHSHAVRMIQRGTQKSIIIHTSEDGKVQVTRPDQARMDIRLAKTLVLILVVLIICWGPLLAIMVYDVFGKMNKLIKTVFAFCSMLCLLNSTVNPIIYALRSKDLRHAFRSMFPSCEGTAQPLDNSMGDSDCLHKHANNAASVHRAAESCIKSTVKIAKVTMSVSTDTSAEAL
Description: (§1) The compounds were further characterized using a radioligand binding assay to determine their affinities for CB1R and CB2R based on each test compound’s ability to displace the radiolabeled CB1R/CB2R agonist CP-55,940 from membranes of cells expressing the human CB1R and CB2R [24].
(§2) Membranes from cells expressing hCB1R and hCB2R were purchased from Charles River, (Cat#A317 and A318, respectively; OH, USA). Solutions of test compounds ranging from 0.1 nM to 10 mM were prepared in DMSO. The desired amount of membrane preparation was diluted with ice-cold assay buffer (50 mM Tris-HCl, 2.5 mM EDTA, 5 mM MgCl2, 0.1% BSA, pH 7.4) and was vortexed. […] The assays were incubated for 90 min at 30 °C and then immediately filtered on WHATMAN GF/B Filter Paper (Fired) using a Brandel M-24R Harvester followed by six washes with ice cold wash buffer (50 mM Tris-HCl, 2.5 mM EDTA, 5 mM MgCl2, 0.1% BSA, pH 7.4). Radioactivity was detected by adding the Filter Paper directly to the ULTIMA GOLD scintillation cocktail (PerkinElmer, Waltham, MA, USA), incubation at 20 °C for 60 min and then counted using a Tri-Carb 4910TR liquid scintillation counter (PerkinElmer, Waltham, MA, USA).

[2] = target: human CB2R (hCB2R) (Homo sapiens, UniProt P34972); assay: [3H]CP-55,940 competition displacement binding assay, hCB2R membranes
human CB2R (hCB2R), sequence (P34972 whole entry): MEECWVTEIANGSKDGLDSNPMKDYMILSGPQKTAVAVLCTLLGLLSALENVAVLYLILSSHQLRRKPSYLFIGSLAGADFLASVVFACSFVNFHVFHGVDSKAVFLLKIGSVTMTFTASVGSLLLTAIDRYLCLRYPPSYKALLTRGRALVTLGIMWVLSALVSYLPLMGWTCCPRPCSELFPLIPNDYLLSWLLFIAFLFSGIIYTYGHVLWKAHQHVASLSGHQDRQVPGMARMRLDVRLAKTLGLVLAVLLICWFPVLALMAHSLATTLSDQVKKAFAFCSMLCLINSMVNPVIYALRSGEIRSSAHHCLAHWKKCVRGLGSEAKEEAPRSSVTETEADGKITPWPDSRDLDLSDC
Description: as §1, §2
Each curve represents the mean of three experiments performed in triplicate.

[3] = target: T2, hCB2R (Homo sapiens, UniProt P34972); assay: [35S]GTPγS binding assay at hCB2R; assay type: biochemical; conditions: for functional activity at hCB2R (agonist / antagonist / inverse agonist): [35S]GTPγS binding; for pEC50: increase in [35S]GTPγS binding to hCB2R, two independent experiments in triplicate
T2 construct: purchased Charles River A318; host or cells: CHO-K1 cells
T2 sequence (P34972 whole entry): as above
Description: The method used for measuring agonist-stimulated binding of [^35S]GTPγS was based on a described protocol. Membranes (5 μg protein) were incubated in GTPγS assay buffer (50 mM Tris HCl (pH 7.4), 0.2 mM EGTA, 9 mM MgCl2, 150 mM NaCl, 1 mg/mL BSA) containing 100 μM GDP, 0.05 nM [^35S]GTPγS and test compounds at various concentrations. Vacuum filtration was used to separate bound ligand from free ligand. We used 10 μM GTPS to determine nonspecific binding. Basal binding was assayed in the absence of the ligand and in the presence of GDP.
Each symbol represents the mean percentage increase in [^35S]GTPγS binding ± SE.

[4] = test system: zymosan-induced paw inflammation; assay: Zymosan-induced hind paw swelling (oedema) in mice; assay type: in vivo; conditions: 6 h after 60 μg zymosan paw injection
[5] = test system: TNF-α; assay: Serum TNF-α (ELISA) after zymosan injection in mice; assay type: in vivo; conditions: 24 h after zymosan
Description: Control mice were injected with vehicle.
A mouse TNFα ELISA kit was used according to the manufacturer’s instructions (R&D Systems, Minneapolis, MN, USA).

[6] = test system: zymosan-induced hyperalgesia; assay: von Frey monofilament pain assay in zymosan-injected mice; assay type: in vivo; conditions: 15 and 25 mg/kg ip, after 6 h, p < 0.01
Description: We injected 40 μL of 1.5% (w/v) zymosan A in 0.9% saline into the right hind paw of the mice to induce inflammation. […] Control mice were injected with vehicle. Paw swelling and pain perception were measured after 2, 6 and 24 h.

[7] = displacement of [3H]CP-55,940, membranes of CHO-K1 cells expressing human CB2R, read-out: Ki (nM) hCB2R
[8] = maximal effect as percentage of HU-308 response at 1 µM

“2-(2′-Methoxy-5′-octylphenyl)-1,3,3-trimethylbicyclo[2.2.1]heptan-2-ol [Compound 3g]” was tested, and the Ki ([1]; displacement of [3H]CP-55,940, class word NB) was over 10000 nM.

With CCCCCc1cc(OC)c(C2(O)C3(C)CCC(C3)C2(C)C)c(OC)c1 (stereo not shown) [Compound 1a, 2-(2′,6′-Dimethoxy-4′-pentylphenyl)-1,3,3-trimethylbicyclo[2.2.1]heptan-2-ol] the Ki [1] was over 10000 nM, the “inhibition of [3H]CP-55,940 binding to hCB1R” value ([1]; result in words) was “no measurable inhibition” and the Ki [2, 7] was 47.7 nM.

With CCCCCc1cc(OC)c(C2(O)C3(C)CCC(C3)C2(C)C)c(OC)c1 (stereo not shown) [Compound 1b, 2-(2′,6′-Dimethoxy-4′-pentylphenyl)-1,3,3-trimethylbicyclo[2.2.1]heptan-2-ol] the Ki [2, 7] was 14.4 nM, the “E(max)%” value [3] was 65.1% and the “functional activity at hCB2R (agonist / antagonist / inverse agonist)” value [3] was “agonist”. For the same compound, the pEC50 [3] was 7.94, the reduction in swelling ([4]; 25 mg/kg ip) was 54% and the “inhibition of TNF-α serum levels” value ([5]; 25 mg/kg ip) was 39%.

With CCCCCCC(C)(C)c1cc(OC)c(C2(O)C3(C)CCC(C3)C2(C)C)c(OC)c1 (stereo not shown) [Compound 1c, 2-(2′,6′-Dimethoxy-4′-(2″-methyloctan-2″-yl)phenyl)-1,3,3-trimethylbicyclo[2.2.1]heptan-2-ol] the Ki [1] was over 10000 nM, the Ki [2, 7] was 56.8 nM and the “functional activity at hCB2R (agonist / antagonist / inverse agonist)” value [3] was “agonist”. The pEC50 [3] was 6.92.

CCCCCCC(C)(C)c1cc(OC)c(C2(O)C3(C)CCC(C3)C2(C)C)c(OC)c1 (stereo not shown) [Compound 1d, 2-(2′,6′-Dimethoxy-4′-(2″-methyloctan-2″-yl)phenyl)-1,3,3-trimethylbicyclo[2.2.1]heptan-2-ol] was tested, and the Ki ([2]; Ki (nM) hCB2R) was 3.51 nM, the pEC50 [3] was 8.59 and the “E(max)%” value [3, 8] was 89.6%. For the same compound, the reduction in swelling ([4]; 15 mg/kg ip) was 30%, the reduction in swelling ([4]; 25 mg/kg ip) was 54% and the “anti-nociceptive effect (paw withdrawal threshold, von Frey)” value [6] was “strong anti-nociceptive effects”. For the same compound, the “inhibition of TNF-α serum levels” value ([5]; 15 mg/kg ip) was 26% and the “inhibition of TNF-α serum levels” value ([5]; 25 mg/kg ip) was 40%.

Work on COc1cc(C)cc(OC)c1C1(O)C2(C)CCC(C2)C1(C)C (stereo not shown) [Compound 1e, 2-(2′,6′-Dimethoxy-4′-methylphenyl)-1,3,3-trimethylbicyclo[2.2.1]heptan-2-ol] yielded a Ki [1] of over 10000 nM and a Ki ([2]; displacement of [3H]CP-55,940, value given in µM, read-out: Ki (nM) hCB2R) of over 10000 nM.

COc1cc(C)cc(OC)c1C1(O)C2(C)CCC(C2)C1(C)C (stereo not shown) [Compound 1f, 2-(2′,6′-Dimethoxy-4′-methylphenyl)-1,3,3-trimethylbicyclo[2.2.1]heptan-2-ol] gave a Ki [2, 7] of 233 nM.

For CCCCCCc1ccc(OC)c(C2(O)C3(C)CCC(C3)C2(C)C)c1OC (stereo not shown) [Compound 2a, 2-(3′-Hexyl-2′,6′-dimethoxyphenyl)-1,3,3-trimethylbicyclo[2.2.1]heptan-2-ol], the Ki [1] was over 10000 nM and the Ki [2, 7] was 224 nM and 223 nM.

CCCCCCc1ccc(OC)c(C2(O)C3(C)CCC(C3)C2(C)C)c1OC (stereo not shown) [Compound 2b, 2-(3′-Hexyl-2′,6′-dimethoxyphenyl)-1,3,3-trimethylbicyclo[2.2.1]heptan-2-ol] was tested, and the Ki [2, 7] was 73.4 nM, the “E(max)%” value [3] was 46.2% and the “functional activity at hCB2R (agonist / antagonist / inverse agonist)” value [3] was “weakly stimulated; also recorded: agonist”. It also gave a pEC50 [3] of 5.71.

With CCCc1ccc(OC)c(C2(O)C3(C)CCC(C3)C2(C)C)c1 (stereo not shown) [Compound 3a, 2-(2′-Methoxy-5′-propylphenyl)-1,3,3-trimethylbicyclo[2.2.1]heptan-2-ol] the Ki [1] was over 10000 nM and the Ki [2, 7] was 1010 nM.

With CCCc1ccc(OC)c(C2(O)C3(C)CCC(C3)C2(C)C)c1 (stereo not shown) [Compound 3b, 2-(2′-Methoxy-5′-propylphenyl)-1,3,3-trimethylbicyclo[2.2.1]heptan-2-ol] the Ki [2, 7] was 610 nM.

CCCCCc1ccc(OC)c(C2(O)C3(C)CCC(C3)C2(C)C)c1 (stereo not shown) [Compound 3c, 2-(2′-Methoxy-5′-pentylphenyl)-1,3,3-trimethylbicyclo[2.2.1]heptan-2-ol] gave a Ki [1] of over 10000 nM and a Ki [2, 7] of 444 nM.

CCCCCc1ccc(OC)c(C2(O)C3(C)CCC(C3)C2(C)C)c1 (stereo not shown) [Compound 3d, 2-(2′-Methoxy-5′-pentylphenyl)-1,3,3-trimethylbicyclo[2.2.1]heptan-2-ol] was tested, and the Ki [2, 7] was 834 nM.

CCC(C)(C)c1ccc(OC)c(C2(O)C3(C)CCC(C3)C2(C)C)c1 (stereo not shown) [Compound 3e, 2-(2′-Methoxy-5′-(tert-pentyl)phenyl)-1,3,3-trimethylbicyclo[2.2.1] heptan-2-ol] gave a Ki [1] of over 10000 nM and a Ki [2, 7] of 2870 nM.

Work on CCC(C)(C)c1ccc(OC)c(C2(O)C3(C)CCC(C3)C2(C)C)c1 (stereo not shown) [Compound 3f, 2-(2′-Methoxy-5′-(tert-pentyl)phenyl)-1,3,3-trimethylbicyclo[2.2.1] heptan-2-ol] yielded a Ki [2, 7] of 1450 nM.

With CCCCCCCCc1ccc(OC)c(C2(O)C3(C)CCC(C3)C2(C)C)c1 (stereo not shown) [Compound 3h, 2-(2′-Methoxy-5′-octylphenyl)-1,3,3-trimethylbicyclo[2.2.1]heptan-2-ol] the Ki [1] was over 10000 nM.

CCCCCc1cc(OC)c(C2(O)C3(C)CCC(C3)C2(C)C)c(OC)c1F (stereo not shown) [Compound 4a, 2-(3′-Fluoro-2′,6′-dimethoxy-4′-pentylphenyl)-1,3,3-trimethylbicyclo[2.2.1]heptan-2-ol] was tested, and the Ki [1] was over 10000 nM and the Ki [2, 7] was 155 nM.

In the case of CCCCCc1cc(OC)c(C2(O)C3(C)CCC(C3)C2(C)C)c(OC)c1F (stereo not shown) [Compound 4b, 2-(3′-Fluoro-2′,6′-dimethoxy-4′-pentylphenyl)-1,3,3-trimethylbicyclo[2.2.1]heptan-2-ol], the Ki [2, 7] was 28.3 nM, the “functional activity at hCB2R (agonist / antagonist / inverse agonist)” value [3] was “agonist” and the pEC50 [3] was 6.52. The “E(max)%” value [3, 8] was 54.2%.

In the case of CCCCCCC(C)(C)c1cc(OC)c(C2(O)C3(C)CCC(C3)C2(C)C)c(OC)c1F (stereo not shown) [Compound 4c, 2-(3′-fluoro-2′,6′-dimethoxy-4′-(2″-methyloctan-2″-yl)phenyl)-1,3,3-trimethylbicyclo[2.2.1]heptan-2-ol], the Ki [1] was over 10000 nM and the Ki [2, 7] was 438 nM.

For CCCCCCC(C)(C)c1cc(OC)c(C2(O)C3(C)CCC(C3)C2(C)C)c(OC)c1F (stereo not shown) [Compound 4d, 2-(3′-fluoro-2′,6′-dimethoxy-4′-(2″-methyloctan-2″-yl)phenyl)-1,3,3-trimethylbicyclo[2.2.1]heptan-2-ol], the Ki [2, 7] was 56.6 nM, the “functional activity at hCB2R (agonist / antagonist / inverse agonist)” value [3] was “agonist” and the pEC50 [3] was 6.98. The “E(max)%” value [3, 8] was 119%.

For CCCCCc1cc(O)c(C2(O)C3(C)CCC(C3)C2(C)C)c(OC)c1 (stereo not shown) [Compound 5a, 2-(2′-hydroxy-6′-methoxy-4′-pentylphenyl)-1,3,3-trimethylbicyclo[2.2.1]heptan-2-ol], the Ki [1] was over 10000 nM and the Ki [2, 7] was 4980 nM.

CCCCCc1cc(O)c(C2(O)C3(C)CCC(C3)C2(C)C)c(OC)c1 (stereo not shown) [Compound 5b, 2-(2′-hydroxy-6′-methoxy-4′-pentylphenyl)-1,3,3-trimethylbicyclo[2.2.1]heptan-2-ol] was tested, and the Ki [2, 7] was 36.5 nM, the “E(max)%” value [3] was 69.5% and the “functional activity at hCB2R (agonist / antagonist / inverse agonist)” value [3] was “agonist”. The pEC50 [3] was 7.08.

Compound CCCCCCC(C)(C)c1cc(O)c(C2(O)C3(C)CCC(C3)C2(C)C)c(OC)c1 (stereo not shown) [Compound 5c, 2-(2′-Hydroxy-6′-methoxy-4′-(2″-methyloctan-2″-yl)phenyl)-1,3,3-trimethylbicyclo-[2.2.1]heptan-2-ol] has a Ki [1] of over 10000 nM and a Ki [2, 7] of 107 nM.

For CCCCCCC(C)(C)c1cc(O)c(C2(O)C3(C)CCC(C3)C2(C)C)c(OC)c1 (stereo not shown) [Compound 5d, 2-(2′-Hydroxy-6′-methoxy-4′-(2″-methyloctan-2″-yl)phenyl)-1,3,3-trimethylbicyclo-[2.2.1]heptan-2-ol], the Ki ([2]; Ki (nM) hCB2R) was 24.6 nM and 24.5 nM, the “functional activity at hCB2R (agonist / antagonist / inverse agonist)” value [3] was “agonist” and the pEC50 [3] was 7.83. The “E(max)%” value [3, 8] was 105%.

With CCCCCCC(C)(C)c1cc(OC)c([C@@H]2C=C(CO)[C@@H]3C[C@H]2C3(C)C)c(OC)c1 [HU-308, reference compound] the pKi [1] was under 5.00, the “functional activity at hCB2R (agonist / antagonist / inverse agonist)” value [3] was “agonist” and the “E(max)%” value [3, 8] was 100%. For the same compound, the reduction in swelling ([4]; 25 mg/kg ip) was 20% and the “inhibition of TNF-α serum levels” value ([5]; 25 mg/kg ip) was 28%.
